Assay [1] deals with T1, human QC (Homo sapiens, UniProt Q16769). As to conditions: Busby, W. H. J. et al. 1987; cited from earlier work.
In assay [2] the target is T1, human QC. The experiment in a line: Inhibitor assay of glutaminyl cyclase (QC), determination of Ki-values. The conditions noted are these: for inhibition of human QC (in words): Example 5.
Procedure: Excitation/emission wavelengths were 320/410 nm. The assay reactions were initiated by addition of glutaminyl cyclase.
Reactions were carried out at 30° C. utilizing the NOVOStar reader for microplates (BMG labtechnologies). […] Excitation/emission wavelengths were 380/460 nm. The assay reactions were initiated by addition of glutaminyl cyclase. […] The kinetic data were evaluated using GraFit sofware.
The initial velocities were evaluated and the enzymatic activity was determined from a standard curve of ammonia under assay conditions. All samples were measured at 30° C., using either the [sequence]luor Plus or the Sunrise (both from TECAN) reader for microplates. Kinetic data was evaluated using GraFit software.
For inhibitor testing, the sample composition was the same as described above, except of the putative inhibitory compound added. […] For detailed investigations of the inhibition and determination of Ki-values, influence of the inhibitor on the auxiliary enzymes was investigated first.

T1 sequence (Q16769 29-361): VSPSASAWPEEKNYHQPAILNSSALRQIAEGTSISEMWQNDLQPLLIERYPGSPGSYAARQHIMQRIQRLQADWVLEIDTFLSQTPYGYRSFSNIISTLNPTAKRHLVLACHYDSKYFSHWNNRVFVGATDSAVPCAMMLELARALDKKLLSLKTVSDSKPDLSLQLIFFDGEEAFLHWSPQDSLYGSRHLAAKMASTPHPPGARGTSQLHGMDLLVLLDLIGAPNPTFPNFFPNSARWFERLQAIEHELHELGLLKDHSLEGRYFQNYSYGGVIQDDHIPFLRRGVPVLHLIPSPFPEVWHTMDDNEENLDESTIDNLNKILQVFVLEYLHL

As for `c1cnc2c(c1)ccc1cccnc12` [1,10-phenanthroline], the “inhibition of human QC detected” value at human QC [1] was “inhibition”.
Turning to `Cn1cnc(CCN)c1` [1-methyl-4-(β-amino-ethyl)-imi-dazole], at human QC [2], the “inhibition of human QC (in words)” value was “complete loss of inhibitory activity”.
On the same count and under the same terms, the same measure for `c1ccc(-n2ccnc2)cc1` [1-phenylimidazole]: “inactive”.
The term Ki denotes a dissociation constant, usually derived from enzyme kinetics or from competition with a known ligand. Low values mean tighter binding, high ones weaker binding. For the compound `CC(=O)c1ccc(NC(=S)NCCCn2ccnc2)cc1` [Example 9], the Ki on human QC [2] worked out at 1790 nM.
As for reduced 6-methylpterin, at human QC [1], the “inhibition of human QC detected” value was “inhibition”.

Source of the values: patent publication US7371871B2, “Inhibitors of glutaminyl cyclase” (Probiodrug AG, priority 2003, dated 2008).
